The structures appear in SMILES notation. Values after ≈ are worked out from the molar mass of the structure shown.

Here are results for 15 compounds from US20160090383A1, “ANTIBACTERIAL PHTHALIDE DERIVATIVES” (priority 2013, published 2016).

What all share (assay): Bacterial growth minimal inhibitory concentration (microdilution, CLSI M7-A7)
Holding throughout (format): cell-based
For orientation: In broth dilution the organism is exposed to a series of concentrations in liquid medium.

Test [1] has as its system Staphylococcus aureus A798. The following applies: Staphylococcus aureus, A798; multiply-resistant strain (quinolone-resistant and methicillin-resistant); cation-adjusted Mueller-Hinton Broth; read-out: MIC for S. aureus A798. On the procedure:
(§1) Minimal Inhibitory Concentrations (MICs; […]) were determined in cation-adjusted Mueller-Hinton Broth by a microdilution method following the description given in “Methods for Dilution Antimicrobial Susceptibility Tests for Bacteria that Grow Aerobically”, Approved standard, 7th ed., Clinical and Laboratory Standards Institute (CLSI) Document M7-A7, Wayne, Pa., USA, 2006.

Test [2] concerns Staphylococcus aureus ATCC29213. The settings on record: Staphylococcus aureus, ATCC29213; methicillin-sensitive and quinolone-sensitive strain; cation-adjusted Mueller-Hinton Broth; read-out: MIC for S. aureus ATCC29213. On the procedure: as §1
Test [3] concerns Streptococcus pneumonia ATTC49619. The following applies: Streptococcus pneumoniae, ATTC49619; quinolone-sensitive strain; cation-adjusted Mueller-Hinton Broth; read-out: MIC for S. pneumonia ATTC49619. The procedure:
as §1

For test [4], the system named is Enterococcus faecium A949. The settings on record: Enterococcus faecium, A949; multiply-resistant strain (quinolone-resistant and vancomycin-resistant); cation-adjusted Mueller-Hinton Broth; read-out: MIC for E. faecium A949. On the procedure:
as §1

Test [5] has as its system Moraxella catarrhalis A894. The following applies: Moraxella catarrhalis, A894; quinolone-sensitive strain; cation-adjusted Mueller-Hinton Broth. The procedure: as §1

Usually MIC stands for the lowest concentration that inhibits growth of the organism. As for `COc1ccc2ncc(=O)n(CCNCCC3OC(=O)c4cc(-c5ccccc5)ccc43)c2n1` (racemic) [Example 2, rac-6-Methoxy-4-{2-[2-(3-oxo-5-phenyl-1,3-dihydro-isobenzofuran-1-yl)-ethylamino]-ethyl}-4H-pyrido[2,3-b]pyrazin-3-one], the MIC was 0.125 µg/mL (≈ 0.274 µM) in test [1]; 0.031 µg/mL (≈ 0.0679 µM) in test [2]; 0.5 µg/mL (≈ 1.1 µM) in test [3]; 0.25 µg/mL (≈ 0.548 µM) in test [4]; 0.5 µg/mL (≈ 1.1 µM) in test [5].

Consider `O=C1OC(CCNCCn2c(=O)ccc3ccc(F)cc32)c2ccc(-c3ccccc3)cc21` (racemic) [Example 3, rac-7-Fluoro-1-{2-[2-(3-oxo-5-phenyl-1,3-dihydro-isobenzofuran-1-yl)-ethylamino]-ethyl}-1H-quinolin-2-one], for which the MIC in test [1] is 0.125 µg/mL (≈ 0.282 µM); in test [2], 0.031 µg/mL (≈ 0.0701 µM); in test [3] it was 0.125 µg/mL (≈ 0.282 µM); in test [4] it was 0.25 µg/mL (≈ 0.565 µM); in test [5] it was 1 µg/mL (≈ 2.26 µM).

As for `O=C(CC1OC(=O)c2cc(-c3ccccc3)ccc21)NCCn1c(=O)ccc2ccc(F)cc21` (racemic) [Example 4, rac-N-[2-(7-Fluoro-2-oxo-2H-quinolin-1-yl)-ethyl]-2-(3-oxo-5-phenyl-1,3-dihydro-isobenzofuran-1-yl)-acetamide], the MIC in test [1] was 0.5 µg/mL (≈ 1.1 µM); in test [2], 0.125 µg/mL (≈ 0.274 µM); in test [3], 1 µg/mL (≈ 2.19 µM); in test [4] it was 0.5 µg/mL (≈ 1.1 µM); in test [5], 8 µg/mL (≈ 17.5 µM).

As to `O=C(CC1OC(=O)c2cc(-c3cccc(F)c3)ccc21)NCCn1c(=O)ccc2ccc(F)cc21` (racemic) [Example 5, rac-N-[2-(7-Fluoro-2-oxo-2H-quinolin-1-yl)-ethyl]-2-[5-(3-fluoro-phenyl)-3-oxo-1,3-dihydro-isobenzofuran-1-yl]-acetamide], the minimal inhibitory concentration (MIC) is 0.25 µg/mL (≈ 0.527 µM) in test [1]; 0.063 µg/mL (≈ 0.133 µM) in test [2]; 0.5 µg/mL (≈ 1.05 µM) in test [3]; 0.25 µg/mL (≈ 0.527 µM) in test [4]; 1 µg/mL (≈ 2.11 µM) in test [5].

Consider `O=C(CC1OC(=O)c2cc(-c3ccccc3F)ccc21)NCCn1c(=O)ccc2ccc(F)cc21` (racemic) [Example 6, rac-N-[2-(7-Fluoro-2-oxo-2H-quinolin-1-yl)-ethyl]-2-[5-(2-fluoro-phenyl)-3-oxo-1,3-dihydro-isobenzofuran-1-yl]acetamide], for which the MIC in test [1] is 0.25 µg/mL (≈ 0.527 µM); in test [2] it was 0.063 µg/mL (≈ 0.133 µM); in test [3], 0.5 µg/mL (≈ 1.05 µM); in test [4], 0.25 µg/mL (≈ 0.527 µM); in test [5] it was 2 µg/mL (≈ 4.22 µM).

For `O=C(CC1OC(=O)c2cc(-c3cccc(F)c3F)ccc21)NCCn1c(=O)ccc2ccc(F)cc21` (racemic) [Example 8, rac-2-[5-(2,3-Difluoro-phenyl)-3-oxo-1,3-dihydro-isobenzofuran-1-yl]-N-[2-(7-fluoro-2-oxo-2H-quinolin-1-yl)-ethyl]-acetamide], the MIC in test [1] amounted to 0.25 µg/mL (≈ 0.508 µM); in test [2] it was 0.031 µg/mL (≈ 0.063 µM); in test [3], 0.5 µg/mL (≈ 1.02 µM); in test [4], 0.25 µg/mL (≈ 0.508 µM); in test [5], 0.5 µg/mL (≈ 1.02 µM).

Regarding `O=C(CC1OC(=O)c2cc(-c3cc(F)ccc3F)ccc21)NCCn1c(=O)ccc2ccc(F)cc21` (racemic) [Example 9, rac-2-[5-(2,5-Difluoro-phenyl)-3-oxo-1,3-dihydro-isobenzofuran-1-yl]-N-[2-(7-fluoro-2-oxo-2H-quinolin-1-yl)-ethyl]-acetamide], the minimal inhibitory concentration (MIC) came to 0.125 µg/mL (≈ 0.254 µM) in test [1]; 0.031 µg/mL (≈ 0.063 µM) in test [2]; 0.25 µg/mL (≈ 0.508 µM) in test [3]; 0.25 µg/mL (≈ 0.508 µM) in test [4]; 0.125 µg/mL (≈ 0.254 µM) in test [5].

As to `O=C(CC1OC(=O)c2cc(-c3ccc(F)c(F)c3)ccc21)NCCn1c(=O)ccc2ccc(F)cc21` (racemic) [Example 10, rac-2-[5-(3,4-Difluoro-phenyl)-3-oxo-1,3-dihydro-isobenzofuran-1-yl]-N-[2-(7-fluoro-2-oxo-2H-quinolin-1-yl)-ethyl]-acetamide], the MIC in test [1] was greater than 8 µg/mL; in test [2] it was 0.5 µg/mL (≈ 1.02 µM); in test [3], 4 µg/mL (≈ 8.12 µM); in test [4], 2 µg/mL (≈ 4.06 µM); in test [5], greater than 8 µg/mL.

For the compound `O=C(CC1OC(=O)c2cc(-c3cc(F)cc(F)c3)ccc21)NCCn1c(=O)ccc2ccc(F)cc21` (racemic) [Example 11, rac-2-[5-(3,5-Difluoro-phenyl)-3-oxo-1,3-dihydro-isobenzofuran-1-yl]-N-[2-(7-fluoro-2-oxo-2H-quinolin-1-yl)-ethyl]-acetamide], the minimum inhibitory concentration (MIC) is 0.25 µg/mL (≈ 0.508 µM) in test [1]; 0.031 µg/mL (≈ 0.063 µM) in test [2]; 0.25 µg/mL (≈ 0.508 µM) in test [3]; 0.25 µg/mL (≈ 0.508 µM) in test [4]; 0.125 µg/mL (≈ 0.254 µM) in test [5].

`O=C(CC1OC(=O)c2cc(C3=CCCC3)ccc21)NCCn1c(=O)ccc2ccc(F)cc21` (racemic) [Example 12, rac-2-(5-Cyclopent-1-enyl-3-oxo-1,3-dihydro-isobenzofuran-1-yl)-N-[2-(7-fluoro-2-oxo-2H-quinolin-1-yl)-ethyl]-acetamide]: the MIC is 0.25 µg/mL (≈ 0.56 µM) in test [1]; 0.031 µg/mL (≈ 0.0694 µM) in test [2]; 2 µg/mL (≈ 4.48 µM) in test [3]; 0.25 µg/mL (≈ 0.56 µM) in test [4]; 1 µg/mL (≈ 2.24 µM) in test [5].

Regarding `O=C1OC(C(=O)NCCCn2c(=O)ccc3ccc(F)cc32)c2ccc(-c3ccccc3)cc21` (racemic) [Example 13, rac-3-Oxo-5-phenyl-1,3-dihydro-isobenzofuran-1-carboxylic acid [3-(7-fluoro-2-oxo-2H-quinolin-1-yl)-propyl]-amide], the MIC in test [1] was 0.125 µg/mL (≈ 0.274 µM); in test [2], 0.063 µg/mL (≈ 0.138 µM); in test [3] it was 1 µg/mL (≈ 2.19 µM); in test [4], 0.5 µg/mL (≈ 1.1 µM); in test [5], greater than 8 µg/mL.

For `O=C1OC(CCNCCn2c(=O)ccc3ccc(F)cc32)c2ccc(-c3ccc(F)cc3F)cc21` (racemic) [Example 15, rac-1-(2-{2-[5-(2,4-Difluoro-phenyl)-3-oxo-1,3-dihydro-isobenzofuran-1-yl]-ethylamino}-ethyl)-7-fluoro-1H-quinolin-2-one], the MIC in test [1] was 1 µg/mL (≈ 2.09 µM); in test [2] it was 0.25 µg/mL (≈ 0.522 µM); in test [3], 0.5 µg/mL (≈ 1.04 µM); in test [4], 0.5 µg/mL (≈ 1.04 µM); in test [5] it was 4 µg/mL (≈ 8.36 µM).

As to `O=C(CC1OC(=O)c2cc(C3=CCCCC3)ccc21)NCCn1c(=O)ccc2ccc(F)cc21` (racemic) [Example 16, rac-2-(5-Cyclohex-1-enyl-3-oxo-1,3-dihydro-isobenzofuran-1-yl)-N-[2-(7-fluoro-2-oxo-2H-quinolin-1-yl)-ethyl]-acetamide], the MIC in test [1] is 0.063 µg/mL (≈ 0.137 µM); in test [2], no more than 0.016 µg/mL; in test [3], 0.5 µg/mL (≈ 1.09 µM); in test [4] it was 0.25 µg/mL (≈ 0.543 µM); in test [5], 0.5 µg/mL (≈ 1.09 µM).

With `CC(C)=Cc1ccc2c(c1)C(=O)OC2CC(=O)NCCn1c(=O)ccc2ccc(F)cc21` (racemic) [Example 17, rac-N-[2-(7-Fluoro-2-oxo-2H-quinolin-1-yl)-ethyl]-2-[5-(2-methyl-propenyl)-3-oxo-1,3-dihydro-isobenzofuran-1-yl]-acetamide], the MIC was no more than 0.016 µg/mL in test [1]; no more than 0.016 µg/mL in test [2]; 0.5 µg/mL (≈ 1.15 µM) in test [3]; 0.063 µg/mL (≈ 0.145 µM) in test [4]; 0.5 µg/mL (≈ 1.15 µM) in test [5].

With `O=C(Cn1c(=O)ccc2ccc(F)cc21)NCCC1OC(=O)c2cc(-c3ccccc3)ccc21` (racemic) [Example 18, rac-2-(7-Fluoro-2-oxo-2H-quinolin-1-yl)-N-[2-(3-oxo-5-phenyl-1,3-dihydro-isobenzofuran-1-yl)-ethyl]-acetamide], the MIC is 2 µg/mL (≈ 4.38 µM) in test [1]; 0.25 µg/mL (≈ 0.548 µM) in test [2]; 4 µg/mL (≈ 8.76 µM) in test [3]; 0.5 µg/mL (≈ 1.1 µM) in test [4]; greater than 8 µg/mL in test [5].
